{"source": "patent US20230333087A1", "about": "“METHODS FOR MONITORING PATIENT RESPONSE TO TREATMENT OF RETINAL OXIDATIVE DISEASES” (BioJiva LLC, priority 2022, published 2023)", "key": {"[1]": {"assay": "D-DHA substitution rates in plasma, red blood cells and retina of mice on 0.5% w/w D-DHA diet", "assay_type": "in vivo, C57BL/6J mice", "conditions": "for doubling interval of D-DHA substitution rate: first order kinetics", "from_the_text": "Mature adult C57BL/6J mice were fed for 78 days with a customized rodent diet containing 0.5% w/w D-DHA and no natural DHA. The animals were sacrificed, and plasma, red blood cells and retinal tissues were dissected at study Days 8, 19, 38, 78, (six animals per time point, 3 males + 3 females). D-DHA + DHA were extracted from samples and derivatized into methyl esters with a mixture of heptane/ toluene (63:37 by volume), and methanol/ dimethoxypropane/ sulfuric acid (85:11:4 by volume) by gentle shaking at 80° C. for 2 hours, followed by separation and drying down of the organic phase under nitrogen. D-DHA + DHA methyl esters were structurally identified and quantified by gas chromatography coupled with a tandem mass spectrometry detector and D-DHA substitution levels (in percent of total DHA) were calculated. The results are represented in Table 1 and graphed in FIG. 1."}, "retinal function": {"tested_on": "retinal function", "assay": "Electroretinography", "assay_type": "in vivo, C57BL/6J mice", "protocol": "(§1) Electroretinography was conducted on mice fed with D-DHA or natural DHA for 4 weeks to evaluate retinal function. […] Thus, using this measure, incorporation of D-DHA had no impact on retinal function (FIG. 7A). […] Toluidine blue staining was performed on plastic sections to examine retinal histology.\nMice were dark adapted overnight and anesthetized with the same procedure. The electroretinograms were recorded with an Espion E3 system (Diagnosys LLC, Lowell, MA) with a ganzfeld Color Dome stimulator as previously described. All electroretinography were performed at the same time of day."}, "retinal structure": {"tested_on": "retinal structure", "assay": "Toluidine blue staining of plastic sections, retinal histology and thickness", "assay_type": "in vivo, C57BL/6J mice", "protocol": "as §1\nPlastic sections (3 µm) were cut in the sagittal plane. The third eyelid was used for the orientation when embedding eye cups. Toluidine blue staining on plastic sections was used to evaluate retinal morphology."}, "[2]": {"tested_on": "carboxyethyl pyrrole (CEP)", "assay": "Immunolabelling for CEP on cryosections", "assay_type": "in vivo, C57BL/6J mice", "conditions": "1 week after injection, 4 weeks diet", "protocol": "Iron-catalyzed peroxidation of phospholipids containing DHA leads to unique carboxyethyl pyrrole (CEP) adducts not formed from any other PUFA. CEP has been detected by IHC in human AMD eyes and mouse retinas, including those from mice receiving IVT iron. To test whether D-DHA could protect against iron-induced CEP formation, mice were fed with D-DHA or DHA for 4 weeks prior to IVT injection of iron or control saline.\nCryosections were prepared at 4h and 1 week after injections. Co-labelling for CEP and rhodopsin was conducted to assess and localize CEP. […] At 1 week after injection, immunolabelling for CEP localized to RPE and infiltrating myeloid cells in IVT iron injected eyes of DHA fed mice, likely originationg from phagocytosed oxidized photoreceptor outer segments (FIG. 8B). Immunolabelling for CEP was undetected in D-DHA fed mice. […] Quantification of pixel density for CEP and L-Ft label was conducted using ImageJ software (FIGS. 8F and 8G), and quantitatively verified the results described above.\nImmunofluorescence on cryosections was conducted as described previously. […] Images were acquired with an epifluorescence microscope (Nikon 80i microscope, Nikon, Tokyo, Japan), and analyzed using NIS-Elements (Nikon)."}, "[3]": {"tested_on": "iron-induced geographic atrophy", "assay": "Iron-induced geographic atrophy development, imaging 4 weeks after injection", "assay_type": "in vivo, C57BL/6J mice", "conditions": "4 weeks diet before and 4 weeks after iron injection", "from_the_text": "To evaluate whether D-DHA could protect against geographic atrophy in this model, mice were continued on respective diets for 4 weeks after iron or saline injection. […] This corresponded to photoreceptor (white arrows) and RPE degeneration (black arrows) in OCT scans (FIG. 10C). […] Taken together, […] retinal D-DHA provided long-term protection against the geographic atrophy development induced by iron.\nAdult male wild-type C57BL/6J mice (Stock No.000664, Jackson Labs, Bar Harbor, ME, USA) were housed in standard conditions under cyclic light (12 h:12 h light-dark cycle). Mice had ad libitum access to water and food. Beginning at 2 mo of age, mice were placed on the AIN93G diet described above, supplemented with 0.25% D-DHA or DHA (control diet) for 1 week, 2 weeks, 3 weeks, or 4 weeks prior to the intravitreal injection. Mice were given an intravitreal injection of 1 µl 0.5 mM ferric ammonium citrate diluted in 0.9% NaCl (saline) (MP Biomedicals LLC, Santa Ana, CA) or\nMice were given general anesthesia and placed on a platform. Pupils were dilated with 1% tropicamide saline solution (Akorn, Inc., Lake Forest, IL). Optical coherence tomography (OCT) imaging was performed for visualization of the retinal structure by using a Bioptigen\nEnvisu (R2200, Bioptigen Inc., Durham, NC, USA) coupled to a broadband LED light source (T870-HP, Superlum Diodes, Ltd, Ireland). […]"}, "[4]": {"tested_on": "lipid peroxidation in a lipid membrane", "conditions": "present at 1% fraction of the total PUFAs in a lipid membrane in vitro; cited from earlier work"}}}
{"smiles": "[2H]C([2H])(/C=C\\CC)/C=C\\C([2H])([2H])/C=C\\C([2H])([2H])/C=C\\C([2H])([2H])/C=C\\C([2H])([2H])/C=C\\CCC(=O)OCC", "note": "[D-DHA, 6,6,9,9,12,12,15,15,18,18-D10-(4Z,7Z,10Z,13Z,16Z, 19Z)-docosa 4,7,10,13,16, 19-hexaenoic acid ethyl ester]", "values": [{"measurement": "D-DHA substitution levels (in percent of total DHA)", "setting": "[1]; neuroretina, day 8", "result": 20.89, "unit": "%"}, {"measurement": "D-DHA substitution levels (in percent of total DHA)", "setting": "[1]; neuroretina, day 19", "result": 42.94, "unit": "%"}, {"measurement": "D-DHA substitution levels (in percent of total DHA)", "setting": "[1]; neuroretina, day 38", "result": 70.74, "unit": "%"}, {"measurement": "D-DHA substitution levels (in percent of total DHA)", "setting": "[1]; neuroretina, day 78", "result": 92.10, "unit": "%"}, {"measurement": "D-DHA substitution levels (in percent of total DHA)", "setting": "[1]; plasma, day 8 after first exposure, 0.5% w/w D-DHA diet", "result": 84.78, "unit": "%"}, {"measurement": "D-DHA substitution levels (in percent of total DHA)", "setting": "[1]; plasma, day 19", "result": 94.17, "unit": "%"}, {"measurement": "D-DHA substitution levels (in percent of total DHA)", "setting": "[1]; plasma, day 38", "result": 97.34, "unit": "%"}, {"measurement": "D-DHA substitution levels (in percent of total DHA)", "setting": "[1]; plasma, day 78", "result": 98.43, "unit": "%"}, {"measurement": "doubling interval of D-DHA substitution rate", "setting": "[1]; plasma", "result": "6 to 7", "unit": "days"}, {"measurement": "D-DHA substitution levels (in percent of total DHA)", "setting": "[1]; red blood cells, day 8", "result": 48.24, "unit": "%"}, {"measurement": "D-DHA substitution levels (in percent of total DHA)", "setting": "[1]; red blood cells, day 19", "result": 72.84, "unit": "%"}, {"measurement": "D-DHA substitution levels (in percent of total DHA)", "setting": "[1]; red blood cells, day 38", "result": 94.12, "unit": "%"}, {"measurement": "D-DHA substitution levels (in percent of total DHA)", "setting": "[1]; red blood cells, day 78", "result": 96.65, "unit": "%"}, {"measurement": "doubling interval of D-DHA substitution rate", "setting": "[1]; red blood cells", "result": "~10", "unit": "days"}, {"measurement": "doubling interval of D-DHA substitution rate", "setting": "[1]; retina", "result": "20 to 22", "unit": "days"}, {"measurement": "rod-b wave, rod-a wave and cone-b wave amplitudes", "setting": "retinal function; 4 weeks diet, mice not given IVT injections, compared to natural DHA", "result": "no significant difference"}, {"measurement": "rod b-wave, rod a-wave and cone-b wave amplitudes", "setting": "retinal function; iron injected eyes, ≥50% retinal D-DHA, 1 week after injection, compared to DHA plus iron", "result": "marked protection"}, {"measurement": "retinal structure (toluidine blue histology)", "setting": "retinal structure; 1 week after iron injection", "result": "complete protection"}, {"measurement": "total retina thickness and outer retina thickness", "setting": "retinal structure; IVT iron injected eyes, 1 week after injection", "result": "significantly protected and not different from saline injected eyes"}, {"measurement": "immunolabelling for CEP", "setting": "[2]", "result": "undetected"}, {"measurement": "geographic atrophy development", "setting": "[3]", "result": "fully protected"}, {"measurement": "inhibition of LPO in liposomes", "setting": "[4]", "result": "efficiently inhibited the LPO"}]}
